# Data taken from patent publication US20080318775A1, “Safening of pesticides with cyclopropenes” (priority 2007, published 2008).
# Like-named read-outs stand apart in the source and are kept apart here.
# Columns and labels:
# [1] = system: GLYPHOSATE-resistant soybeans; conditions: in vivo
# [2] = system: GLYPHOSATE-resistant soybeans; experiment: Plant height of soybeans sprayed with 2% GLYPHOSATE with or without 1-MCP
# [3] = system: GLYPHOSATE-resistant soybeans; experiment: Plant height of soybeans sprayed with 0.5% GLYPHOSATE with or without 1-MCP
# [4] = system: GLYPHOSATE-resistant soybeans; experiment: Plant height of soybeans sprayed with 0.05% PHYSAN 20 fungicide/antimicrobial agent with or without 1-MCP; assay type: in vivo; conditions: 10 ppm 1-MCP with 0.05% PHYSAN 20; plant height after 21 days
# [5] = system: GLYPHOSATE-resistant soybeans; conditions: in vivo; remark: listed apart in the source
smiles,measurement,setting,value
"CNC(=O)Oc1cccc2ccccc12 [CARBARYL, reference compound]",Plant Height,[1],112.8
"O=C(O)CNCP(=O)(O)O [GLYPHOSATE, reference compound]",Plant Height,"[2]; greenhouse, sprayed to run off at second true leaves, 2% GLYPHOSATE, 10 ppm 1-MCP (as α-cyclodextrin complex), adjuvant 0.1% Quillaja Saponin, 21 days after spray, untreated control 126",112.9
same,Plant Height,"[3]; greenhouse, sprayed to run off at second true leaves, 0.5% GLYPHOSATE, 10 ppm 1-MCP (as α-cyclodextrin complex), adjuvant 0.1% Quillaja Saponin, 21 days after spray, untreated control 126",112.1
"CC1=CC1 [1-MCP, 1-methylcyclopropene]",Effect compared to the fungicide-treated plants (in words),[4],positive effect
same,Effect on setback caused by the insecticide (in words),[1],able to mediate some of the setback caused by the insecticide
same,Effect on plant height / effect of the herbicide (in words),"[2]; 10 ppm 1-MCP with 2% GLYPHOSATE, with or without 0.1% Quillaja Saponin adjuvant, plant height after 21 days",improved the height
same,Effect on the negative effect of the fertilizer on plant growth (in words),[5],able to alleviate some of that effect
same,Effect on growth reduction caused by the herbicide (in words),"[3]; 10 ppm 1-MCP with 0.5% GLYPHOSATE, plant height after 21 days",able to prevent the growth reduction caused by the herbicide
